Results on 30 molecules are retold here after patent publication US20110105509A1 (Wyeth, LLC, priority 2009, published 2011).

Structures are written as SMILES. A value given as a limit tells only on which side of the number the result lay.

The experiment addresses T1, CRTH2 (Homo sapiens, UniProt Q9Y5Y4).
T1 construct: expressed in transfected cells; host or cells: CHO cells
T1 sequence (Q9Y5Y4 1-395): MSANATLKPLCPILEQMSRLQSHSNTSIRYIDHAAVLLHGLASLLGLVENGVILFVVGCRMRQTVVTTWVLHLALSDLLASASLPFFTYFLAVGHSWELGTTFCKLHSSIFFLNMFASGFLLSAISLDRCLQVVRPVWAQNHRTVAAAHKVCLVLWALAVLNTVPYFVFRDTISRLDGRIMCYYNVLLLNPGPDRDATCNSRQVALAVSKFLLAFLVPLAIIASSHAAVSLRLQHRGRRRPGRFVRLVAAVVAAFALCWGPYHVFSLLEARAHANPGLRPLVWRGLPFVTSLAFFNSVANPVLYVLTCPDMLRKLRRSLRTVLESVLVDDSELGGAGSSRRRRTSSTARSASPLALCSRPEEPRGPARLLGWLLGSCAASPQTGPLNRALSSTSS
The experiment can be described thus: FRET based competitive immunoassay (cAMP) in CRTH2 expressing CHO cells. The format is cell-based. The note with it: CRTH2 expressing CHO cells incubated with forskolin and PGD2; Eu3+ cryptate-labeled anti-cAMP and d2-labeled cAMP. The procedure: FRET Assay: To evaluate potency compounds were tested in a FRET based competitive immunoassay in which CRTH2 expressing CHO cells were incubated in the presence of forskolin and PGD2 along with Eu3+ cryptate-labeled anti-cAMP and d2-labeled cAMP.
Consider `COc1ccc2c(c1)c(-c1nn(C(C)C)c(=O)c3ccccc13)c(C)n2CC(=O)O` [Example 19, 2-(3-(3-Isopropyl-4-oxo-3,4-dihydrophthalazin-1-yl)-5-methoxy-2-methyl-1H-indol-1-yl)acetic acid], for which the IC50 was found to be 109 nM.

`Cc1c(-c2ccc(=O)n(Cc3ccccn3)c2)c2cc(F)ccc2n1CC(=O)O` [Example 309, 2-(5-fluoro-2-methyl-3-(6-oxo-1-(pyridin-2-ylmethyl)-1,6-dihydropyridin-3-yl)-1H-indol-1-yl)acetic acid] showed an IC50 of 105 nM. In turn, `Cc1c(-c2nn(CCC(C(F)(F)F)C(F)(F)F)c(=O)c3ccccc23)c2cc(F)ccc2n1CC(=O)O` [Example 137, 2-(5-fluoro-2-methyl-3-(4-oxo-3-(4,4,4-trifluoro-3-(trifluoromethyl)butyl)-3,4-dihydrophthalazin-1-yl)-1H-indol-1-yl)acetic acid] yielded an IC50 of 21 nM.

The molecule `Cc1c(-c2ccc(=O)n(Cc3ccc4ccccc4n3)n2)c2cc(F)ccc2n1CC(=O)O` [Example 157, 2-(5-fluoro-2-methyl-3-(6-oxo-1-(quinolin-2-ylmethyl)-1,6-dihydro-pyridazin-3-yl)-1H-indol-1-yl)acetic acid] displayed an IC50 of 57 nM.

Molecule `Cc1c(Cc2ccc(=O)n(Cc3ccc(C(F)(F)F)cc3)n2)c2cc(F)ccc2n1CC(=O)O` [Example 82, 2-(5-fluoro-2-methyl-3-((6-oxo-1-(4-(trifluoromethyl)benzyl)-1,6-dihydro-pyridazin-3-yl)methyl)-1H-indol-1-yl)acetic acid] yielded an IC50 of 16 nM. The figure for `Cc1c(Cc2ccc(=O)n(CCCC(F)(F)F)c2)c2cc(F)ccc2n1CC(=O)O` [Example 54, 2-(5-Fluoro-2-methyl-3-((6-oxo-1-(4,4,4-trifluorobutyl)-1,6-dihydropyridin-3-yl)methyl)-1H-indol-1-yl)acetic acid] is 329 nM; for `Cc1c(-c2cn(C(C)C)c(=O)c3ccccc23)c2ccccc2n1CC(=O)O` [Example 252, 2-(3-(2-isopropyl-1-oxo-1,2-dihydroisoquinolin-4-yl)-2-methyl-1H-indol-1-yl)acetic acid] it is 12 nM.

`Cc1cc(Cn2nc(-c3c(C)n(CC(=O)O)c4ccc(F)cc34)c3ccccc3c2=O)c2ccccc2n1` [Example 119, 2-(5-fluoro-2-methyl-3-(3-((2-methylquinolin-4-yl)methyl)-4-oxo-3,4-dihydro-phthalazin-1-yl)-1H-indol-1-yl)acetic acid] came in with an IC50 of 17 nM. For `Cc1c(-c2ccc(=O)n(Cc3ccccc3)n2)c2cc(S(C)(=O)=O)ccc2n1CC(=O)O` [Example 214, 2-(3-(1-benzyl-6-oxo-1,6-dihydropyridazin-3-yl)-2-methyl-5-(methylsulfonyl)-1H-indol-1-yl)acetic acid] the value was 351 nM; for `Cc1c(-c2ccc(=O)n(CCCC(F)(F)F)c2)c2cc(F)ccc2n1CC(=O)O` [Example 297, 2-(5-fluoro-2-methyl-3-(6-oxo-1-(4,4,4-trifluorobutyl)-1,6-dihydropyridin-3-yl)-1H-indol-1-yl)acetic acid], 38 nM. The figure for `Cc1c(-c2ccc(=O)n(Cc3ccccc3)c2)c2cc(F)ccc2n1CC(=O)NS(C)(=O)=O` [Example 313, 2-(3-(1-Benzyl-6-oxo-1,6-dihydropyridin-3-yl)-5-fluoro-2-methyl-1H-indol-1-yl)-N-(methyl-sulfonyl)acetamide] is 32 nM.

Take `Cc1c(-c2nn(Cc3ncnn3-c3ccccc3)c(=O)c3ccccc23)c2cc(F)ccc2n1CC(=O)O` [Example 261, 2-(5-fluoro-2-methyl-3-(4-oxo-3-((1-phenyl-1H-1,2,4-triazol-5-yl)methyl)-3,4-dihydrophthalazin-1-yl)-1H-indol-1-yl)acetic acid]: the 50% inhibitory concentration (IC50) was found to be 11 nM. Molecule `Cc1c(-c2nn(Cc3ccc(F)cc3)c(=O)c3ccccc23)c2cc(F)ccc2n1CC(=O)O` [Example 111, 2-(5-fluoro-3-(3-(4-fluorobenzyl)-4-oxo-3,4-dihydrophthalazin-1-yl)-2-methyl-1H-indol-1-yl)acetic acid] yielded an IC50 of over 20 nM. The figure for `Cc1c(-c2ccc(=O)n(Cc3ccc4ccccc4n3)n2)c2cc(Cl)ccc2n1CC(=O)O` [Example 144, 2-(5-chloro-2-methyl-3-(6-oxo-1-(quinolin-2-ylmethyl)-1,6-dihydro-pyridazin-3-yl)-1H-indol-1-yl)acetic acid] is 11 nM; for `Cc1c(Cc2cn(Cc3ccccc3)c(=O)c3ccccc23)c2cc(Cl)ccc2n1CC(=O)O` [Example 87, 2-(3-((2-benzyl-1-oxo-1,2-dihydroisoquinolin-4-yl)methyl)-5-chloro-2-methyl-1H-indol-1-yl)acetic acid] it is 210 nM. For `Cc1c(Cc2ccc(=O)n(CC(C)(C)O)n2)c2cc(F)ccc2n1CC(=O)O` [Example 197, (5-fluoro-3-{[1-(2-hydroxy-2-methylpropyl)-6-oxo-1,6-dihydropyridazin-3-yl]-methyl}-2-methyl-1H-indol-1-yl)acetic acid] the value was 270 nM; for `Cc1c(-c2nn(CC(C)(C)C)c(=O)c3ccccc23)c2cc(F)ccc2n1CC(=O)O` [Example 126, 2-(5-fluoro-2-methyl-3-(3-neopentyl-4-oxo-3,4-dihydrophthalazin-1-yl)-1H-indol-1-yl)acetic acid], 8 nM. In turn, `Cc1c(-c2nn(C3CC3)c(=O)c3ccccc23)c2cc(F)ccc2n1CC(=O)O` [Example 123, 2-(3-(3-cyclopropyl-4-oxo-3,4-dihydrophthalazin-1-yl)-5-fluoro-2-methyl-1H-indol-1-yl)acetic acid] came in with a half-inhibitory concentration (IC50) of 22 nM. For `Cc1c(-c2nn(CC(F)(F)F)c(=O)c3ccccc23)c2ccccc2n1CC(=O)O` [Example 177, 2-(2-Methyl-3-(4-oxo-3-(2,2,2-trifluoroethyl)-3,4-dihydrophthalazin-1-yl)-1H-indol-1-yl)-acetic acid] the value was 215 nM; for `Cc1c(Cc2ccc(=O)n(Cc3cccc(F)c3)n2)c2ccccc2n1CC(=O)O` [Example 75, 2-(3-((1-(3-fluorobenzyl)-6-oxo-1,6-dihydropyridazin-3-yl)methyl)-2-methyl-1H-indol-1-yl)acetic acid], 101 nM; for `Cc1c(-c2nn(Cc3ccccc3)c(=O)c3ccccc23)c2ccccc2n1Cc1nn[nH]n1` [Example 51, 4-(1-((2H-Tetrazol-5-yl)methyl)-2-methyl-1H-indol-3-yl)-2-benzyl-phthalazin-1(2H)-one], over 2000 nM. Consider `Cc1c(-c2ccc(=O)n(Cc3cc(F)c(F)cc3F)n2)c2cc(Cl)ccc2n1CC(=O)O` [Example 69, 2-(5-chloro-2-methyl-3-(6-oxo-1-(2,4,5-trifluorobenzyl)-1,6-dihydropyridazin-3-yl)-1H-indol-1-yl)acetic acid], for which the IC50 was found to be 7 nM. For `COC(=O)Cn1c(C)c(-c2ccc(=O)n(Cc3ccc(F)cc3F)n2)c2ccccc21` [Example 186, methyl 2-(3-(1-(2,4-difluorobenzyl)-6-oxo-1,6-dihydropyridazin-3-yl)-2-methyl-1H-indol-1-yl)acetate], the concentration for half-maximal inhibition (IC50) is 150 nM. For `Cc1c(-c2nn(Cc3ccc4ccccc4n3)c(=O)c3ccccc23)c2cc(F)ccc2n1CC(=O)O` [Example 118, 2-(5-fluoro-2-methyl-3-(4-oxo-3-(quinolin-2-ylmethyl)-3,4-dihydro-phthalazin-1-yl)-1H-indol-1-yl)acetic acid] the value was 9 nM. The figure for `Cc1c(-c2nn(CCC(C)(C)O)c(=O)c3ccccc23)c2cc(F)ccc2n1CC(=O)O` [Example 132, 2-(5-fluoro-3-(3-(3-hydroxy-3-methylbutyl)-4-oxo-3,4-dihydrophthalazin-1-yl)-2-methyl-1H-indol-1-yl)acetic acid] is 75 nM.

`Cc1c(-c2ccc(=O)n(Cc3cc(F)ccc3F)n2)c2cc(Cl)ccc2n1CC(=O)O` [Example 67, 2-(5-chloro-3-(1-(2,5-difluorobenzyl)-6-oxo-1,6-dihydropyridazin-3-yl)-2-methyl-1H-indol-1-yl)acetic acid] came in with an IC50 of 23 nM. For `Cc1c(-c2ccc(=O)n(CC(C)C)c2)c2ccccc2n1CC(=O)O` [Example 287, 2-(3-(1-isobutyl-6-oxo-1,6-dihydropyridin-3-yl)-2-methyl-1H-indol-1-yl)-acetic acid] the value was 305 nM. For `Cc1c(Cc2ccc(=O)n(Cc3cccc(F)c3F)n2)c2ccccc2n1CC(=O)O` [Example 79, 2-(3-((1-(2,3-difluorobenzyl)-6-oxo-1,6-dihydropyridazin-3-yl)methyl)-2-methyl-1H-indol-1-yl)acetic acid], the IC50 came to 22 nM. For `Cc1c(-c2nn(CCC(F)(F)F)c(=O)c3ccccc23)c2cc(F)ccc2n1CC(=O)O` [Example 127, 2-(5-fluoro-2-methyl-3-(4-oxo-3-(3,3,3-trifluoropropyl)-3,4-dihydro-phthalazin-1-yl)-1H-indol-1-yl)acetic acid], the IC50 was 4 nM. For `Cc1c(-c2nn(Cc3nc4cc(Cl)ccc4s3)c(=O)c3ccccc23)c2cc(F)ccc2n1CC(=O)O` [Example 208, 2-(3-(3-((5-chlorobenzo[d]thiazol-2-yl)methyl)-4-oxo-3,4-dihydrophthalazin-1-yl)-5-fluoro-2-methyl-1H-indol-1-yl)acetic acid] the value was 3 nM.

What is called IC50 is the point on the concentration scale where inhibition reaches its midpoint.
